Structures can show the parent of a compound that is named as a salt. Where two headings read alike, the source gives them in different places. *1 amine or outer side, *2 acyl side, *3 side chain or, on linkers, in order; H or OH if unused. Where a SMILES comes first, the peptide text is derived from it. Bridges are numbered along the chain shown (N, C = ends). [ ]: non-standard residue; d: D form. The star is where a group is joined. pTerphenylCO(4''-OnC5H11) = CCCCCOc1ccc(-c2ccc(-c3ccc(C(=O)*)cc3)cc2)cc1; Orn(4R-OH,5R-OH) = O=C([C@H](C[C@@H](O)[C@@H](O)N[*:3])N[*:1])[*:2]; hTyr(3S-OH,4S-OH) = N[C@H](C(=O)O)[C@H](O)[C@@H](O)c1ccc(O)cc1; Pro(3S-OH,4S-Me) = C[C@H]1CN[C@H](C(=O)O)[C@H]1O; Hyp = O=C(O)[C@@H]1C[C@@H](O)CN1

Assay [1] deals with P. falciparum 3D7 parasites. The assay is described as follows: P. falciparum growth inhibition assay, 1-cycle (72 h treatment), SYBR DNA staining (library screen at 2 μg/mL and dose-response). The format is cell-based, Plasmodium falciparum. Particulars: library screen at 2 μg/mL, 72 h, % growth; for activity at 2 µg/mL: Plasmodium falciparum.
Assay [2] has as its system T. gondii RH strain (RH-Tub-eYFP) tachyzoites. Briefly: microbe, parasite or virus in culture. Format: cell-based, Toxoplasma gondii.
For assay [3], the system named is P. falciparum 3D7 parasites. Briefly: P. falciparum growth inhibition assay, 2-cycle (120 h treatment), delayed-death screen and dose-response. The format is cell-based, Plasmodium falciparum. The following applies: library screen at 2 μg/mL, 120 h, % growth; for activity at 2 µg/mL: Plasmodium falciparum.
[4] abbreviates: library screen at 2 μg/mL, 72 h, % growth, replicate 1.
[5] abbreviates: library screen at 2 μg/mL, 72 h, % growth, replicate 2.
Where [6] appears, read: 3D7, replicate 1, read-out: Pf_72h_%Growth_Rep1.
Setting [7] is: 3D7, replicate 2, read-out: Pf_72h_%Growth_Rep2.
The mark [8] stands for this setting: Toxoplasma gondii, 72 h, library screen at 2 μg/mL, 72 h, % growth, replicate 1; read-out: Tg_72h_%Growth_Rep1.
[9] abbreviates: Toxoplasma gondii, 72 h, library screen at 2 μg/mL, 72 h, % growth, replicate 2; read-out: Tg_72h_%Growth_Rep2.
The mark [10] stands for this setting: 3D7, replicate 1, read-out: Pf_120h_%Growth_Rep1.
Where [11] appears, read: 3D7, replicate 2, read-out: Pf_120h_%Growth_Rep2.
Setting [12] is: 3D7, 72 h, replicate 1, read-out: Pf_72h_%Growth_Rep1.
[13] abbreviates: 3D7, 72 h, replicate 2, read-out: Pf_72h_%Growth_Rep2.
Setting [14] is: T. gondii, 72 h, 2 μg/mL; values are growth (% of control).
Where [15] appears, read: 3D7, 120 h, replicate 1, read-out: Pf_120h_%Growth_Rep1.
Where [16] appears, read: 3D7, 120 h, replicate 2, read-out: Pf_120h_%Growth_Rep2.

As to `CC[C@H]1OC(=O)[C@H](C)[C@@H](O[C@H]2C[C@@](C)(OC)[C@@H](O)[C@H](C)O2)[C@H](C)[C@@H](O[C@@H]2O[C@H](C)C[C@H](N(C)C)[C@H]2O)[C@@]2(C)C[C@@H](C)[C@@]3(O[C@@]1(C)[C@H](O)[C@H]3C)O2` [Anhydroerythromycin A], in assay [1] (replicate 1), the Pf_72h_%Growth_Rep1 stood at 84.47%. In assay [1] (replicate 2), this compound gave a Pf_72h_%Growth_Rep2 of 88.69%. Moreover, the Tg_72h_%Growth_Rep1 in assay [2] (setting [4]) came out at 129.02%. The Tg_72h_%Growth_Rep2 in assay [2] (setting [5]) stood at 98.86%. Moreover, in assay [3] (replicate 1), the Pf_120h_%Growth_Rep1 amounted to 87.25%. For the same compound, the Pf_120h_%Growth_Rep2 in assay [3] (replicate 2) is on record as 85.54%.
Compound `CC(C)=C[C@H]1C[C@H](C)[C@]2(CC[C@]3(C)C[C@@H]4C(C)=CC(=O)[C@@H]4/C(C=O)=C\C[C@H]32)O1` [Anhydroophiobolin A] yielded a Pf_72h_%Growth_Rep1 in assay [1] (replicate 1) of 9.46%. The Pf_72h_%Growth_Rep2 in assay [1] (replicate 2) was found to be 6.48%. The Tg_72h_%Growth_Rep1 in assay [2] (setting [4]) is listed as 154.62%. The Tg_72h_%Growth_Rep2 in assay [2] (setting [5]) stood at 91.26%. Also, the Pf_120h_%Growth_Rep1 in assay [3] (replicate 1) is on record as 0.81%. In addition, the Pf_120h_%Growth_Rep2 in assay [3] (replicate 2) is reported as -1.29%.
Turning to `Cc1c2c(c(O)c3c(O)cccc13)C(=O)[C@]1(O)C(=O)C(C(N)=O)=C(O)[C@@H](N(C)C)[C@@H]1C2` [Anhydrotetracycline hydrochloride], the activity at 2 µg/mL in assay [1] (setting [6]) worked out at 77.2%; in assay [1] (setting [7]), 74%; in assay [3] (setting [10]) it was 52.2%; in assay [3] (setting [11]), 57%. Besides, the percent parasite growth at 2 µg/mL in assay [2] (setting [8]) came to 89.6%; in assay [2] (setting [9]) it was 88.3%.
Consider `CCCCCOc1ccc(-c2ccc(-c3ccc(C(=O)N[C@H]4C[C@@H](O)[C@@H](O)NC(=O)[C@@H]5[C@@H](O)[C@@H](C)CN5C(=O)[C@H]([C@@H](C)O)NC(=O)[C@H]([C@H](O)[C@@H](O)c5ccc(O)cc5)NC(=O)[C@@H]5C[C@@H](O)CN5C(=O)[C@H]([C@@H](C)O)NC4=O)cc3)cc2)cc1` [Anidulafungin] ({pTerphenylCO(4''-OnC5H11)}-[Orn(4R-OH,5R-OH)]T[Hyp][hTyr(3S-OH,4S-OH)]T[Pro(3S-OH,4S-Me)]; lactam 1-C), for which the activity at 2 µg/mL in assay [1] (setting [6]) is 93.1%; in assay [1] (setting [7]), 85.8%; in assay [3] (setting [10]) it was 162%; in assay [3] (setting [11]) it was 103%. Besides, the percent parasite growth at 2 µg/mL in assay [2] (Toxoplasma gondii; library screen at 2 μg/mL, 72 h, % growth, replicate 1; read-out: Tg_72h_%Growth_Rep1) was 88.8%; in assay [2] (Toxoplasma gondii; library screen at 2 μg/mL, 72 h, % growth, replicate 2; read-out: Tg_72h_%Growth_Rep2), 95.8%.
In assay [1] (replicate 1), `COc1ccc(C[C@H]2NC[C@H](O)[C@H]2OC(C)=O)cc1` [Anisomycin] returned a Pf_72h_%Growth_Rep1 of 2.13%. In assay [1] (replicate 2), this compound had a Pf_72h_%Growth_Rep2 of 2.45%. The Tg_72h_%Growth_Rep1 in assay [2] (setting [4]) was found to be 0.93%. The same compound came in with a Tg_72h_%Growth_Rep2 in assay [2] (setting [5]) of 1.73%. The Pf_120h_%Growth_Rep1 in assay [3] (replicate 1) was 9.82%. Further, in assay [3] (replicate 2), the Pf_120h_%Growth_Rep2 is on record as -15.33%.
For the compound `CO[C@H]1/C=C/C=C/C=C/C[C@H](OC(=O)[C@@H](C)NC(=O)C2CCCCC2)[C@H](C)[C@@H](O)/C(C)=C\CCC2=CC(=O)C=C(NC(=O)C1)C2=O` [Ansatrienin A], in assay [1] (replicate 1), the Pf_72h_%Growth_Rep1 was found to be 2.60%. Moreover, in assay [1] (replicate 2), the Pf_72h_%Growth_Rep2 is reported as 3.94%. This compound gave a Tg_72h_%Growth_Rep1 in assay [2] (setting [4]) of 38.64%. Further, in assay [2] (setting [5]), the Tg_72h_%Growth_Rep2 turned out to be 44.79%. Further, the Pf_120h_%Growth_Rep1 in assay [3] (replicate 1) turned out to be 4.00%. Further, the Pf_120h_%Growth_Rep2 in assay [3] (replicate 2) is on record as -9.91%.
The compound `CO[C@H]1\C=C/C=C\C=C/C[C@H](OC(=O)[C@@H](C)NC(=O)C2CCCCC2)[C@H](C)[C@@H](O)/C(C)=C\CCc2cc(O)cc(c2O)NC(=O)C1` [Ansatrienin B] returned a Pf_72h_%Growth_Rep1 in assay [1] (replicate 1) of 4.68%. In assay [1] (replicate 2), this compound yielded a Pf_72h_%Growth_Rep2 of 7.24%. In assay [2] (setting [4]), the Tg_72h_%Growth_Rep1 is given as 19.16%. In assay [2] (setting [5]), this compound gave a Tg_72h_%Growth_Rep2 of 11.14%. For the same compound, the Pf_120h_%Growth_Rep1 in assay [3] (replicate 1) was -0.38%. Besides, the Pf_120h_%Growth_Rep2 in assay [3] (replicate 2) was determined as 4.42%.
In assay [1] (replicate 1), `C=C[C@@H](CO)[C@H]1CCN2CCc3c([nH]c4ccccc34)[C@@H]2C1` [Anthirine] yielded a Pf_72h_%Growth_Rep1 of 73.25%. The Pf_72h_%Growth_Rep2 in assay [1] (replicate 2) was determined as 82.22%. The compound also displayed a Tg_72h_%Growth_Rep1 in assay [2] (setting [4]) of 43.71%. In assay [2] (setting [5]), this compound had a Tg_72h_%Growth_Rep2 of 53.47%. In assay [3] (replicate 1), the Pf_120h_%Growth_Rep1 came out at 66.95%. The Pf_120h_%Growth_Rep2 in assay [3] (replicate 2) is listed as 48.16%.
`CCCCCC[C@H]1C(=O)O[C@H](C)[C@H](NC(=O)c2cccc(NC=O)c2O)C(=O)O[C@@H](C)[C@@H]1OC(=O)CC(C)C` [Antimycin A1] gave a Pf_72h_%Growth_Rep1 in assay [1] (replicate 1) of 7.57%. In assay [1] (replicate 2), this compound yielded a Pf_72h_%Growth_Rep2 of 13.46%. The same compound yielded a Tg_72h_%Growth_Rep1 in assay [2] (setting [4]) of 5.65%. Besides, the Tg_72h_%Growth_Rep2 in assay [2] (setting [5]) was 4.89%. Besides, in assay [3] (replicate 1), the Pf_120h_%Growth_Rep1 is listed as -1.25%. In addition, the Pf_120h_%Growth_Rep2 in assay [3] (replicate 2) is reported as 6.08%.
As to `CCCC[C@H]1C(=O)O[C@H](C)[C@H](NC(=O)c2cccc(NC=O)c2O)C(=O)O[C@@H](C)[C@@H]1OC(=O)CC(C)C` [Antimycin A3], the activity at 2 µg/mL in assay [1] (setting [12]) was 47.1%; in assay [1] (setting [13]), 38.8%; in assay [3] (setting [15]), 45.4%; in assay [3] (setting [16]), 32%. In assay [2] (T. gondii, 72 h, 2 μg/mL; mean of both replicates, growth (% of control)), this compound registered a Mean of 21.56. Further, the “Replicate 1” value in assay [2] (setting [14]) was determined as 30.27. Moreover, in assay [2] (setting [14]), the “Replicate 2” value is on record as 12.84. The results for the percent parasite growth at 2 µg/mL in assay [2] (setting [8]) and in assay [2] (setting [9]) were 30.3% and 12.8%, respectively.
Turning to `C[C@@]1(CO)[C@H](O)CC[C@@]2(C)[C@H]1CC[C@H]1C[C@@H]3C[C@@]12CC[C@]3(O)CO` [Aphidicolin], the activity at 2 µg/mL in assay [1] (setting [6]) is 7%; in assay [1] (setting [7]) it was 4.32%; in assay [3] (setting [10]) it was 10.5%; in assay [3] (setting [11]), -6.36%. The percent parasite growth at 2 µg/mL in assay [2] (setting [8]) is 1.91%; in assay [2] (setting [9]), 0.58%.
Consider `CCC(=O)CCCCC[C@@H]1NC(=O)[C@H]2CCCCN2C(=O)[C@H]([C@@H](C)CC)NC(=O)[C@H](Cc2cn(OC)c3ccccc23)NC1=O` [Apicidin], for which the activity at 2 µg/mL was 1.42% in assay [1] (setting [12]), 5.38% in assay [1] (setting [13]), 2.31% in assay [3] (setting [15]) and -15.8% in assay [3] (setting [16]). Also, the percent parasite growth at 2 µg/mL in assay [2] (setting [8]) was 6.14%; in assay [2] (setting [9]), 0.42%.
In turn, `Cc1c2c(c(O)c3c(O)cccc13)C(=O)O[C@@H]2[C@@H]1[C@H](O)C(=O)C(C(N)=O)=C(O)[C@H]1N(C)C` [Apooxytetracycline, alpha-] had a Pf_72h_%Growth_Rep1 in assay [1] (replicate 1) of 86.78%. In assay [1] (replicate 2), this compound had a Pf_72h_%Growth_Rep2 of 89.73%. Moreover, the Tg_72h_%Growth_Rep1 in assay [2] (setting [4]) is reported as 81.07%. This compound had a Tg_72h_%Growth_Rep2 in assay [2] (setting [5]) of 111.56%. Also, the Pf_120h_%Growth_Rep1 in assay [3] (replicate 1) stood at 91.28%. The Pf_120h_%Growth_Rep2 in assay [3] (replicate 2) is 90.91%.
With `Cc1c2c(c(O)c3c(O)cccc13)C(=O)O[C@@H]2[C@H]1[C@H](N(C)C)C(O)=C(C(N)=O)C(=O)[C@@H]1O` [Apooxytetracycline, beta-], the Pf_72h_%Growth_Rep1 in assay [1] (replicate 1) is on record as 86.47%. Further, in assay [1] (replicate 2), the Pf_72h_%Growth_Rep2 is 89.55%. This compound gave a Tg_72h_%Growth_Rep1 in assay [2] (setting [4]) of 117.82%. This compound also had a Tg_72h_%Growth_Rep2 in assay [2] (setting [5]) of 102.07%. Besides, the Pf_120h_%Growth_Rep1 in assay [3] (replicate 1) was determined as 69.86%. Also, the Pf_120h_%Growth_Rep2 in assay [3] (replicate 2) is 97.44%.

For the origin of these results see publication PMC12396409, “Screening and hit evaluation of a microbial metabolite library against the pathogenic Plasmodium falciparum and Toxoplasma gondii parasites” (International Journal for Parasitology: Drugs and Drug …, 2025).
